In patent US8802638B1, “Flavonoid treatment of glycogen synthase kinase-based disease” (University of South Florida, priority 2007, dated 2014):

Columns and labels:
[1] = cited from earlier work
GSK-3α/β [2] = target: T1, GSK-3α/β (Mus musculus, UniProt Q2NL51); experiment: Western blot of phosphorylated GSK-3α/β forms in SweAPP N2a cells; format: cell-based, murine; design: endogenous in cells; host or cells: SweAPP N2a cells; settings: 20 μM
Procedure: (§1) Cultured cells or mouse brain were lysed in ice-cold lysis buffer described above, and an aliquot corresponding to 50 μg of total protein was electrophoretically separated using 12% Tris-HCl or 16.5% Tris-tricine gels. Electrophoresed proteins were then transferred to PVDF membranes, washed in dH2O, and blocked for 1 hr at ambient temperature in Tris-buffered saline (TBS; Bio-Rad) containing 5% (w/v) non-fat dry milk. After blocking, membranes were hybridized for 1 hr at ambient temperature with various primary antibodies. Membranes were then washed 3× for 5 min each in dH2O and incubated for 1 hr at ambient temperature with the appropriate HRP-conjugated secondary antibody (1:1,000). […] Densitometric analysis was done as previously described using a FluorS Multiimager with Quantity One™ software (39). […] Antibodies used for Western blot included the APP-carboxyl-terminal antibody (1:50)), amino-terminal APP antibody (clone 22C11), or 6E10 (1:1,000), or actin antibody (1:1,500; as an internal reference control). γ-secretase activity was quantified in cell lysates using available kits based on secretase-specific peptides conjugated to fluorogenic reporter molecules. […]

GSK-3α/β [3] = target: T1, GSK-3α/β; experiment: Western blot of phosphorylated GSK-3α/β forms in Tg2576-derived neuronal cells; format: cell-based, mice; design: endogenous in cells; host or cells: primary neuronal cells derived from Tg2576 mice; settings: 20 μM
Procedure: as §1

PS1-APP association = experiment: PS1-APP association, immunoprecipitation/Western blot in SweAPP N2a cells; format: cell-based, murine; settings: 20 μM for 4 hrs or siRNA transfection
Procedure: Cultured cells or mouse brain were lysed in ice-cold lysis buffer described above, and an aliquot corresponding to 50 μg of total protein was electrophoretically separated using 12% Tris-HCl or 16.5% Tris-tricine gels. Electrophoresed proteins were then transferred to PVDF membranes, washed in dH2O, and blocked for 1 hr at ambient temperature in Tris-buffered saline (TBS; Bio-Rad) containing 5% (w/v) non-fat dry milk. After blocking, membranes were hybridized for 1 hr at ambient temperature with various primary antibodies. Membranes were then washed 3× for 5 min each in dH2O and incubated for 1 hr at ambient temperature with the appropriate HRP-conjugated secondary antibody (1:1,000). All antibodies were diluted in TBS containing 5% (w/v) of non-fat dry milk. Blots were developed using the luminol reagent (Pierce Biotechnology). Densitometric analysis was done as previously described using a FluorS Multiimager with Quantity One™ software. Immunoprecipitation was performed for detection of sAPP-α, sAPP-β and Aβ by incubating 200 μg of total protein of each sample with various sequential combinations of 6E10 (1:100) and/or 22C11 (1:100) antibodies overnight with gentle rocking at 4° C., and 10 μL of 50% protein A-Sepharose beads were then added to the sample (1:10; Sigma) prior to gentle rocking for an additional 4 hrs at 4° C. Following washes with 1× cell lysis buffer, samples were subjected to Western blot as described above. Antibodies used for Western blot included the APP-carboxyl-terminal antibody (1:50)), amino-terminal APP antibody (clone 22C11), or 6E10 (1:1,000), or actin antibody (1:1,500; as an internal reference control). γ-secretase activity was quantified in cell lysates using available kits (R&D Systems, Minneapolis, Minn.), based on secretase-specific peptides conjugated to fluorogenic reporter molecules.
Cell lysates of luteolin-treated SweAPP N2a cells were immunoprecipitated by PS1 antibody and probed for APP to clarify how phospho-PS1 CTF isoforms may regulate γ-secretase activity, seen in FIGS. 26(A) through 27(B). As illustrated in FIGS. 26(A) and (B), the APP-PS1 association is disrupted by luteolin, SB-415286 treatment, and GSK-3α siRNA. […] Thus, GSK-3α or, more specifically, downstream phosphorylation of the PS1 CTF plays an essential role in regulating the association of γ-secretase complex with its APP substrate.

TACE, ADAM10, sAPPα = experiment: non-amyloidogenic APP processing (TACE, ADAM10 maturation, sAPPα release); format: cell-based; settings: data not shown
Source text: The presence of phosphorylated PS1 CTFs corresponds with reduction of Aβ generation and accumulation of the β-CTF of APP, as was observed following luteolin treatment. The accumulation β-CTFs following luteolin treatment is a fraction of β-CTF seen after direct γ-secretase inhibitor treatment (data not shown). In view of this finding, selective GSK-3 inactivation is a less toxic, more regulative, substrate-specific mode of γ-secretase inhibition. Earlier studies routinely employed phorbol-12,13-dibutyrate (PDBu), a potent PKC activator, as their phosphorylating agent. Thus, luteolin was tested for similar PKC activation, rather than a GSK-3 inhibitor. […] Additionally, there are no indications GSK-3α inhibition affects non-amyloidogenic processing of APP, since luteolin, SB-415286, and GSK-3α RNAi treatment have no effect on the maturation of TACE, ADAM10, or sAPPα release (data not shown), which are all strongly associated with PKC activation.

T1 sequence (Q2NL51 2-490): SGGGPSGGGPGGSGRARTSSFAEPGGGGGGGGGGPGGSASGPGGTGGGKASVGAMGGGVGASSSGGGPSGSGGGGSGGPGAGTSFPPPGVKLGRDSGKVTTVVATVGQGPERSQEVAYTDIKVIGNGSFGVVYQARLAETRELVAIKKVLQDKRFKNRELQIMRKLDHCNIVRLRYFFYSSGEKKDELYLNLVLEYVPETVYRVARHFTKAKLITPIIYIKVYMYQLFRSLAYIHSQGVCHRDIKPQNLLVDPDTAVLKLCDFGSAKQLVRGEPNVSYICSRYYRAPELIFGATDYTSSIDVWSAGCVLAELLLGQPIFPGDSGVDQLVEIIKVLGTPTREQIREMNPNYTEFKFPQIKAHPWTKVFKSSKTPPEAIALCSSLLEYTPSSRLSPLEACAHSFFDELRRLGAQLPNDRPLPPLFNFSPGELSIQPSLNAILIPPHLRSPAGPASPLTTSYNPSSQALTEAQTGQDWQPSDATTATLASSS

In the case of `O=c1cc(-c2ccc(O)c(O)c2)oc2cc(O)cc(O)c12` [luteolin], the half-life in plasma ([1]; in vivo) is given as under 4 h, the oral bioavailability ([1]; oral) is given as under 2% and the “levels of serine 21-phosphorylated, inactive GSK-3α isoforms” value (GSK-3α/β [2]; SweAPP N2a cells) is given as “increased the levels”. For the same compound, the “levels of tyrosine 279 phosphorylated active GSK-3α isoforms” value (GSK-3α/β [2]; through 3 hrs (FIGS. 13 and 17)) was “concurrently decreased in time-dependent manner”, the “levels of serine 21-phosphorylated, inactive GSK-3α isoforms” value (GSK-3α/β [3]) was “increased the levels” and the “ratio of APP to actin (full-length APP levels)” value (PS1-APP association; 6E10 Western blot of lysates) was “no significant changes”. The APP-PS1 association (PS1-APP association; IP with anti-PS1 CTF, 6E10 blot) was “disrupted” and the “maturation of TACE, ADAM10, or sAPPα release” value (TACE, ADAM10, sAPPα) was “no effect”.
